1 compound from article PMC6529423, “The extracellular gate shapes the energy profile of an ABC exporter” (Nature Communications, 2019) can be followed below.

The assay concerns the target T1, EfrEF (Enterococcus faecalis, UniProt Q832J9+Q832K0).
T1 construct: gene EF_2226; heterodimeric ABC exporter, expressed in Lactococcus lactis NZ9000 from pNZ8048NH3, purified in DDM, reconstituted in proteoliposomes
The experiment in a line: ATPase stimulation in proteoliposomes; also ethidium efflux from L. lactis cells. Type of assay: biochemical. The note with it: 1 mM ATP, 10 mM MgSO4, 50 mM HEPES pH 7.0, 30 °C; stimulator of ATPase.

T1 sequence (Q832K0 entry or part of it): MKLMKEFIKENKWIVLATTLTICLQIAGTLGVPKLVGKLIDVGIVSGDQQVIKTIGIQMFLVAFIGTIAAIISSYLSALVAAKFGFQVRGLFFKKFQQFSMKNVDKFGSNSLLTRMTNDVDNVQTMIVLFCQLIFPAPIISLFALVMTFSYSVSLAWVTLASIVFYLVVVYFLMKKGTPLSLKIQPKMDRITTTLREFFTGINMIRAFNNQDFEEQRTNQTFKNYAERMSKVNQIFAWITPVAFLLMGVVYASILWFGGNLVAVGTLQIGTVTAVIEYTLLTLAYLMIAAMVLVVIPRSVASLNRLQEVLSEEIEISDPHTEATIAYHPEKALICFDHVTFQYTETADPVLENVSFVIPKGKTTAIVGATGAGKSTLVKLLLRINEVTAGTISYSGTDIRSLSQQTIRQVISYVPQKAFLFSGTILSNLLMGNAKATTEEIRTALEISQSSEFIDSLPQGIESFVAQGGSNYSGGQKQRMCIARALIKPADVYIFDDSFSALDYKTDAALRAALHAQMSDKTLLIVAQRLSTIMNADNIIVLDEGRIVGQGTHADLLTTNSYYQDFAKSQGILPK
T1 sequence (Q832J9 entry or part of it): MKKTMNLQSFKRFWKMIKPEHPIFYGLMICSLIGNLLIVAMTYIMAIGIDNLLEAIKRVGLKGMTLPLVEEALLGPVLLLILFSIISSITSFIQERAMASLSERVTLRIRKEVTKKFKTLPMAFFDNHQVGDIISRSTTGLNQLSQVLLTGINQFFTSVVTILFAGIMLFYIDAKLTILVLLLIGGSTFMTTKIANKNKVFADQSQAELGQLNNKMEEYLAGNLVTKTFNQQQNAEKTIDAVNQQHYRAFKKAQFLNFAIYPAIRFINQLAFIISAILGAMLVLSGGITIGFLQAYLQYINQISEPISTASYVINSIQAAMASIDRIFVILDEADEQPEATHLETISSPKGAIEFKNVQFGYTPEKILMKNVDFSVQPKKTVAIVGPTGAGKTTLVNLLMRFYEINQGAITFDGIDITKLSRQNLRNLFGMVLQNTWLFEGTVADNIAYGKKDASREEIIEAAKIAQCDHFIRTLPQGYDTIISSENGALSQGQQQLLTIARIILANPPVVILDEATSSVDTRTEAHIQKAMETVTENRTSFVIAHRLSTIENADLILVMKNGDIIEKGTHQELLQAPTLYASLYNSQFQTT

As to `CC[n+]1c(-c2ccccc2)c2cc(N)ccc2c2ccc(N)cc21` [ethidium], the “ATPase stimulation in proteoliposomes; also ethidium efflux from L. lactis cells” value was “Wild-type EfrEF efficiently expels ethidium from the cell”.
